Reference: article PMC6194020, “Cryo-EM structures of human STEAP4 reveal mechanism of iron(III) reduction” (Nature Communications, 2018)
Where a chain is given by its changes, count along the chain named. In names and notes the source's numbering stands.

How the values were obtained:
STEAP4EM [1] = biological target: T1, STEAP4EM (Homo sapiens, UniProt Q687X5); assay: ferrozine ferric-reductase assay, FAD varied, binding curve fit; format: biochemical; details: 200 µM Fe3+-NTA, 75 µM NADPH, 37 °C, SEC buffer pH 5.5, digitonin; Kd from activity curve; also seen in cryo-EM structures
T1 construct: gene STEAP4; residues K18-Q456 (deltaN17 deltaC3), C-terminal GFP-Strep3 tag removed by TEV; codon-optimised, HEK293 GNTI- cells; digitonin-solubilised homotrimer; cytosolic oxidoreductase domain plus transmembrane domain
T1 sequence (Q687X5 18-456): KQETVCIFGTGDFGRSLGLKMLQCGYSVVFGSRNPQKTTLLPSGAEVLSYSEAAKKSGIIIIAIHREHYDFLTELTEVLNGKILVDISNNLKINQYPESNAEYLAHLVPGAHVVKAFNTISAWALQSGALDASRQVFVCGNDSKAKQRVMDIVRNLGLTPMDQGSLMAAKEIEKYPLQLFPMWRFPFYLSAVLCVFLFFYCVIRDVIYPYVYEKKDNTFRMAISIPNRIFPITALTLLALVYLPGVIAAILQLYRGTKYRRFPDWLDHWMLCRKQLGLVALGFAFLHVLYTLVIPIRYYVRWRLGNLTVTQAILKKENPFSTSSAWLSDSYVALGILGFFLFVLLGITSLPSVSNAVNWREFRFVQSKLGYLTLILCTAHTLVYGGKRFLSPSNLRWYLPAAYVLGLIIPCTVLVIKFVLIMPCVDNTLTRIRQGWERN

[2] = biological target: T2, GFP-tagged full-length STEAP4 (Homo sapiens, UniProt Q687X5); assay: ferrozine ferric-reductase assay, FAD varied; format: biochemical; details: 200 µM Fe3+-NTA, 75 µM NADPH, 37 °C, SEC buffer pH 5.5, digitonin
T2 construct: full-length, C-terminal GFP-Strep3 tag kept; detergent-purified (digitonin), trimer
T2 sequence (Q687X5 1-459): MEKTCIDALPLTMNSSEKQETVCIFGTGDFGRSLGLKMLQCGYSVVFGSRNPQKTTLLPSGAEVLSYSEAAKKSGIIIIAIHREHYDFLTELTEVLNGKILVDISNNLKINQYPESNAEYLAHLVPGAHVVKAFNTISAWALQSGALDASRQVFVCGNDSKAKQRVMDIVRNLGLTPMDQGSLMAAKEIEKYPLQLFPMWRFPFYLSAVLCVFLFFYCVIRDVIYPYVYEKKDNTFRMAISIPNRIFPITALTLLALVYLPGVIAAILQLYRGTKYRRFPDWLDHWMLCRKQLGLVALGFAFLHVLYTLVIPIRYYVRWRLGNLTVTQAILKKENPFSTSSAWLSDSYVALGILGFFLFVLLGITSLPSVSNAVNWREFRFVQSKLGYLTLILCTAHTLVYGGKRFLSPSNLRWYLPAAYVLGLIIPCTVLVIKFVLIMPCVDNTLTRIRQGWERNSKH

STEAP4EM [3] = biological target: T1, STEAP4EM; assay: ferric-reductase assay with FMN instead of FAD; format: biochemical; details: FMN in place of FAD; construct (STEAP4EM or full length) not stated in main text
[4] = biological target: T2, GFP-tagged full-length STEAP4; assay: ferrozine ferric-reductase assay, NADPH varied; format: biochemical; details: 200 µM Fe3+-NTA, 10 µM FAD, 37 °C, SEC buffer pH 5.5, digitonin
[5] = biological target: T3, GFP-tagged full-length STEAP4 (Homo sapiens, UniProt Q687X5, S138Q); assay: ferrozine ferric-reductase assay, NADPH varied; format: biochemical; details: 200 µM Fe3+-NTA, 10 µM FAD, 37 °C, SEC buffer pH 5.5, digitonin
T3 construct: full-length, C-terminal GFP-Strep3 tag kept; detergent-purified (digitonin), trimer
T3 sequence (Q687X5 1-459 S138Q): T2 sequence (Q687X5 1-459) with S138Q

[6] = biological target: STEAP4EM (human STEAP4 residues K18-Q456, ΔN17ΔC3), non-TEV cleaved, with C-terminal GFP-Strep3 tag (human); assay: SEC-MALS; non-TEV cleaved STEAP4EM on Superdex200 10/300 increase in 20 mM Tris pH 8.0, 150 mM NaCl, 0.08% digitonin, 0.75 ml/min; protein conjugate analysis to separate protein and micelle
[7] = biological target: the molecule itself; assay: not stated; purified S138Q mutant; data in Supplementary Fig. 13
[8] = substrate: NC(=O)C1=CN([C@@H]2O[C@H](COP(=O)(O)OP(=O)(O)OC[C@H]3O[C@@H](n4cnc5c(N)ncnc54)[C@H](OP(=O)(O)O)[C@@H]3O)[C@@H](O)[C@H]2O)C=CC1; assay: ferrozine ferric-reductase assay, NADPH varied; format: biochemical, Homo sapiens; details: 200 µM Fe3+-NTA, 10 µM FAD, 37 °C, SEC buffer pH 5.5, digitonin, also seen in cryo-EM structure

Molecule: Cc1cc2nc3c(=O)[nH]c(=O)nc-3n(C[C@H](O)[C@H](O)[C@H](O)COP(=O)(O)OP(=O)(O)OC[C@H]3O[C@@H](n4cnc5c(N)ncnc54)[C@H](O)[C@@H]3O)c2cc1C [FAD]
- Kd (STEAP4EM [1]): 1200 nM
- ferrozine ferric-reductase assay, FAD varied [2]: full-length STEAP4 wildtype (WT) and S138Q mutant with varying FAD concentrations

Molecule: Cc1cc2nc3c(=O)[nH]c(=O)nc-3n(C[C@H](O)[C@H](O)[C@H](O)COP(=O)(O)O)c2cc1C [FMN]
- ferric-reductase assay with FMN instead of FAD (STEAP4EM [3]): FMN may act as a cofactor in STEAP4-catalyzed iron reduction

Molecule: NC(=O)C1=CN([C@@H]2O[C@H](COP(=O)(O)OP(=O)(O)OC[C@H]3O[C@@H](n4cnc5c(N)ncnc54)[C@H](OP(=O)(O)O)[C@@H]3O)[C@@H](O)[C@H]2O)C=CC1 [NADPH]
- ferrozine ferric-reductase assay, NADPH varied [4]: full-length STEAP4 WT and S138Q mutant with varying NADPH concentrations
- ferrozine ferric-reductase assay, NADPH varied [5]: displayed strongly impaired ferric-reductase activity

Molecule: STEAP4EM (human STEAP4 residues K18-Q456, ΔN17ΔC3), non-TEV cleaved, with C-terminal GFP-Strep3 tag (enzyme)
- stoichiometry N [6]: 3

B1: full-length human STEAP4 S138Q mutant (enzyme, UniProt Q687X5 1-459, looked up)
chain: T2 sequence (Q687X5 1-459) with S138Q
notes: six-transmembrane epithelial antigen of the prostate 4 (STEAP4), human, full length, with S138Q; source: detergent-purified
- stoichiometry N [7]: 3

B2: STEAP4EM (Homo sapiens) (protein)
chain: T1 sequence (Q687X5 18-456)
notes: residues K18-Q456 (deltaN17 deltaC3), C-terminal GFP-Strep3 tag removed by TEV; codon-optimised, HEK293 GNTI- cells; digitonin-solubilised homotrimer; cytosolic oxidoreductase domain plus transmembrane domain
- Km [8]: 4.2 µM
